# Measured values as given in paper PMC9515143, “Phosphorylation of Jhd2 by the Ras-cAMP-PKA(Tpk2) pathway regulates histone modifications and autophagy” (Nature Communications, 2022).
# Key:
# H3K4me3 = experiment: Western blot of H3K4 methylation in mutants; assay type: cell-based, budding yeast (Saccharomyces cerevisiae)
# Description: Cells were grown in 5 ml YPD or selective medium until OD600 of 0.7–1.0. Cells were harvested and lysed in alkaline lysis buffer (2 M NaOH, 8% 2-mercaptoethanol). After centrifugation, the protein pellet was resuspended in 150 μl 2×SDS-sample buffer. Protein samples were separated by 8–15% SDS-PAGE and transferred to PVDF membrane. The blots were probed with primary antibodies followed by incubation with horseradish peroxidase-labelled IgG secondary antibodies. The protein bands were visualized using the ECL Chemiluminescence Detection Kit (Bio-Rad, 170–5061) and quantified with Image J software (v.1.8.0).
# COMPASS (Spp1-CBP) = experiment: In vitro histone methyltransferase (HMT) assay with purified COMPASS; assay type: biochemical, budding yeast (Saccharomyces cerevisiae); details: COMPASS (Spp1-CBP) purified from cells grown in 0.05% glucose
# Description: The HMT reactions were carried out using purified COMPASS (Spp1-CBP) and 15 μg recombinant H3 in 50 μl reaction buffer (50 mM Tris pH 8.5, 20 mM KCl, 10 mM MgCl2, 10 mM 2-mercaptoethanol, 100 μM SAM, 250 mM sucrose, protease inhibitor cocktail) at 30 °C for 0–2 hr. Reactions were quenched by adding 5 × SDS loading buffer and boiled at 95°C for 5 min. Protein was separated on a 10–20% SDS-PAGE gel followed by Western blots with the antibodies indicated.
# Supplementary Fi g . […] WT (a) and H2B-F LA G cel ls (b) wer e grown in YPD medium until OD600 of 0.7.
# Cells were th en tr eat ed with YP medium supplement ed with differen t concentrations of glucos e for 0.5 hr. C ells were h ar vested an d the ex tract ed histones w er e anal yz ed by Western blots with indicat ed ant ibodies. To d et ect H2B monoubiquitination, H2B-F LAG strain w as used and d et ect ed with anti -F LAG ant ibody. Th e upper bands ar e monoubiquitinat ed H2B-F LAG. c E ff e c t of gl ucose on histone modifications in WT and ubp8∆ ubp10∆ mutant. WT and ubp8∆ ubp10∆ mut ant w er e gro wn in YPD medium unti l OD600 of 0.7. Cells wer e th en treated with YP medium supplem ent ed with di fferent con cen tr ations of gl u cos e fo r 0.5 hr. d Gluco se has no effect on the activit y of C O M PA S S . Spp1-TA P cells wer e grown in YPD medium until OD600 of 1.5. Cells were h arv est ed and then […]
compound,measurement,setting,value
OC[C@H]1OC(O)[C@H](O)[C@@H](O)[C@@H]1O (stereo partly drawn) [glucose],H3K4me3 level in chd1Δ mutant,"H3K4me3; chd1Δ, different glucose concentrations, 0.5 hr, Western blot (rebuttal)",glucose-induced
same,"H3K4me3 level, WT versus tpk2Δ","H3K4me3; increasing glucose concentrations, Western blot",induced H3K4me3 in WT but not tpk2Δ mutant
same,HMT activity of COMPASS,COMPASS (Spp1-CBP),did not affect the HMT activity of COMPASS
